In patent US20120220564A1, “SELECTIVE CALCIUM CHANNEL MODULATORS” (Zalicus Pharmaceuticals Ltd., priority 2009, published 2012):
pIC50: −log10 of the molar value.

Tests used:
[1] = target: T1, α1H (CaV 3.2) (Homo sapiens, UniProt O95180); experiment: T-type calcium channel block, whole cell patch clamp; type: cell-based; conditions: HEK cells, mainly non-inactivated protocol; values above 10,000 nM represented as 10000
T1 construct: expressed in transfected cells; host or cells: HEK 293
Description: (§1) T-type calcium channel blocking activity was assayed in human embryonic kidney cells, HEK 293 (Invitrogen), stably transfected with the T-type calcium channel subunits. Briefly, cells were cultured in Dulbecco's modified eagle medium (DMEM) supplemented with 10% fetal bovine serum, 200 U/ml penicillin, and 0.2 mg/mL streptomycin at 37° C. with 5% CO2. At 85% confluency, cells were split with 0.25% trypsin/1 mM EDTA and plated at 10% confluency on glass coverslips. At 12 hours, the medium was replaced, and the cells stably transfected using a standard calcium phosphate protocol and the appropriate calcium channel cDNA's. Fresh DMEM was supplied, and the cells transferred to 28° C./5% CO2. Cells were incubated for 1 to 2 days prior to whole cell recording.
(§2) Standard patch-clamp techniques were employed to identify blockers of T-type currents. Briefly, previously described HEK cell lines stably expressing human α1G, α1H and α1I T-type channels were used for all the recordings (passage #: 4-20, 37° C., 5% CO2). Whole cell patch clamp experiments were performed using an Axopatch 200B amplifier (Axon Instruments, Burlingame, Calif.) linked to a personal computer equipped with pCLAMP software. Data were analyzed using Clampfit (Axon Instruments) and SigmaPlot 4.0 (Jandel Scientific). To obtain T-type currents, plastic dishes containing semi-confluent cells were positioned on the stage of a ZEISS AXIOVERT S100 microscope after replacing the culture medium with external solution (Table 2). Whole-cell patches were obtained using pipettes (borosilicate glass with filament, O.D.: 1.5 mm, I.D.: 0.86 mm, 10 cm length), fabricated on a SUTTER P-97 puller with resistance values of ˜5 MΩ (Table 3).
(§3) T-type currents were reliably obtained by using two voltage protocols:
(§4) In the non-inactivating protocol, the holding potential is set at −110 mV and with a pre-pulse at −100 mV for 1 second prior to the test pulse at −40 mV for 50 ms. In the inactivation protocol, the pre-pulse is at approximately −85 mV for 1 second, which inactivates about 15% of the T-type channels (Scheme 1).
(§5) Test compounds were dissolved in external solution, 0.1-0.01% DMSO. After ˜10 minutes rest, they were applied by gravity close to the cell using a WPI microfil tubing. The “non-inactivated” pre-pulse was used to examine the resting block of a compound. The “inactivated” protocol was employed to study voltage-dependent block. However, the initial data shown below were mainly obtained using the non-inactivated protocol only. IC50 values are shown for various compounds of the invention in Table 4. […] In Table 4, empty cells indicate that inhibition by the compound was not detected.

[2] = target: T2, α1G (CaV 3.1) (Homo sapiens, UniProt O43497); experiment: as above; type: cell-based; conditions: HEK cells, mainly non-inactivated protocol; values above 10,000 nM represented as 10000
T2 construct: expressed in transfected cells; host or cells: HEK 293
Description: as §1, §2, §3, §4, §5

[3] = test system: minimal muscular or neurological impairment (rotarod); experiment: Mouse rotarod assay; type: in vivo, mice
Description: To assess a compound's undesirable side effects (toxicity), animals can be monitored for overt signs of impaired neurological or muscular function. In mice, the rotarod procedure (Dunham and Miya, J. Am. Pharmacol. Assoc. 46:208-209 (1957)) is used to disclose minimal muscular or neurological impairment (MMI). When a mouse is placed on a rod that rotates at a speed of 6 rpm, the animal can maintain its equilibrium for long periods of time. The animal is considered toxic if it falls off this rotating rod three times during a 1-min period.

T1 sequence (O95180 whole entry): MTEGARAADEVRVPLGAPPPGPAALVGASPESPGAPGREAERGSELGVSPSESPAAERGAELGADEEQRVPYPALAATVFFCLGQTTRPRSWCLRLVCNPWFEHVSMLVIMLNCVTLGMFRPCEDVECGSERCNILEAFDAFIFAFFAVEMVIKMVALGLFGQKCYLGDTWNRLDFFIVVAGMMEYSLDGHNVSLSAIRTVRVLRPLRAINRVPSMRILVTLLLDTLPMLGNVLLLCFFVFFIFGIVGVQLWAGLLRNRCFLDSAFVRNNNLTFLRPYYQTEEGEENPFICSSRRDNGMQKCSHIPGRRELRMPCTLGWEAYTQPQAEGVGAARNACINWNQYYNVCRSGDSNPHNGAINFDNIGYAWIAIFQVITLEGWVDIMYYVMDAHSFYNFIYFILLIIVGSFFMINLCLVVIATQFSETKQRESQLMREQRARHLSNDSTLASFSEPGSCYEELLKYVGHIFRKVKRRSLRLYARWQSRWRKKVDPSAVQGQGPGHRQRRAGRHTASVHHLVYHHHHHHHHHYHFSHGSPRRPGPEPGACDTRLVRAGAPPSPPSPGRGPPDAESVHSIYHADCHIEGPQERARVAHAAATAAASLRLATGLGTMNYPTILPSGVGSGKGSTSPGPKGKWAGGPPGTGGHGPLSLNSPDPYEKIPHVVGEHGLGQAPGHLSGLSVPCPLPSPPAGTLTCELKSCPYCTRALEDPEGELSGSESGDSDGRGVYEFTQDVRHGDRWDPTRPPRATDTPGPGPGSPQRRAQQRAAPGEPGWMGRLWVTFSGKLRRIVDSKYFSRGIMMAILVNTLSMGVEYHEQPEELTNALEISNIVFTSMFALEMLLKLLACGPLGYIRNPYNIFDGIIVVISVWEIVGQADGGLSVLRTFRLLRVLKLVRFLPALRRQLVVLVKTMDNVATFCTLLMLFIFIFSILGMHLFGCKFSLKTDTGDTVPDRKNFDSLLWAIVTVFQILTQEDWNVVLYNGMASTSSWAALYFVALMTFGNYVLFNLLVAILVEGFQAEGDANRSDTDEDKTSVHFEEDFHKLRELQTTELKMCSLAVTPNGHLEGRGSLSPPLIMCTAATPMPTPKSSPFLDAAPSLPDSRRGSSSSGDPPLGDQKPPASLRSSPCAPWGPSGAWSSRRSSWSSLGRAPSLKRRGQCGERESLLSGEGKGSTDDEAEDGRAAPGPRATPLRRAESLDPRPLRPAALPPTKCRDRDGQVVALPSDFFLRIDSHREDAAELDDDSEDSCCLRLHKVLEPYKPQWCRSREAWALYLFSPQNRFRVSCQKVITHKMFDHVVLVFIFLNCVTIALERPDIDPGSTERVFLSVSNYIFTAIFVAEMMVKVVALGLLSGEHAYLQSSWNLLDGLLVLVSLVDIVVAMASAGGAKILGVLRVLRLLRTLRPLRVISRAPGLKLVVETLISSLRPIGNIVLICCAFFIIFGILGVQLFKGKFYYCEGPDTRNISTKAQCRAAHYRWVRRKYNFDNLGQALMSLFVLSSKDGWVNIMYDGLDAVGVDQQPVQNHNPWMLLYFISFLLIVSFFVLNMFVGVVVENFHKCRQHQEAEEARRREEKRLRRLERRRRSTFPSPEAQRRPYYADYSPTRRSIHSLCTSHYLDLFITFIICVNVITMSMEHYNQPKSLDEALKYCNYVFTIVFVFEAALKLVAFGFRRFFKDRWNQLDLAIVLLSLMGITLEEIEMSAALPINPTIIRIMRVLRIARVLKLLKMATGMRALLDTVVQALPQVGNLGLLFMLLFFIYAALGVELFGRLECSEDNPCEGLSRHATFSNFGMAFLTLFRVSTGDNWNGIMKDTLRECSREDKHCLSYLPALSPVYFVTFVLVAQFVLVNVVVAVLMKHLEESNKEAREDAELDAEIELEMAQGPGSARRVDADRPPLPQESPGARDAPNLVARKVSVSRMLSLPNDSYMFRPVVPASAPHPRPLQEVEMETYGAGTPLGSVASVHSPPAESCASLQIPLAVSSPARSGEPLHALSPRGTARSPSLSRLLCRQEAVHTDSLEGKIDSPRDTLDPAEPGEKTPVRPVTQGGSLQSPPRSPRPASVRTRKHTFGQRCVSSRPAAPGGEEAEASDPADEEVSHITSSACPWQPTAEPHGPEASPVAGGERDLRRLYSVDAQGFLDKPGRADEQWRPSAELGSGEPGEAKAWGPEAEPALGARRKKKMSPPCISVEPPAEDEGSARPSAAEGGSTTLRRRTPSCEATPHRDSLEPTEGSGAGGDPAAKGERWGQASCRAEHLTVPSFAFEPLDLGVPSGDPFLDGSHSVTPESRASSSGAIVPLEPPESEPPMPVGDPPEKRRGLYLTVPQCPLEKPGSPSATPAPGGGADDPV
T2 sequence (O43497 whole entry): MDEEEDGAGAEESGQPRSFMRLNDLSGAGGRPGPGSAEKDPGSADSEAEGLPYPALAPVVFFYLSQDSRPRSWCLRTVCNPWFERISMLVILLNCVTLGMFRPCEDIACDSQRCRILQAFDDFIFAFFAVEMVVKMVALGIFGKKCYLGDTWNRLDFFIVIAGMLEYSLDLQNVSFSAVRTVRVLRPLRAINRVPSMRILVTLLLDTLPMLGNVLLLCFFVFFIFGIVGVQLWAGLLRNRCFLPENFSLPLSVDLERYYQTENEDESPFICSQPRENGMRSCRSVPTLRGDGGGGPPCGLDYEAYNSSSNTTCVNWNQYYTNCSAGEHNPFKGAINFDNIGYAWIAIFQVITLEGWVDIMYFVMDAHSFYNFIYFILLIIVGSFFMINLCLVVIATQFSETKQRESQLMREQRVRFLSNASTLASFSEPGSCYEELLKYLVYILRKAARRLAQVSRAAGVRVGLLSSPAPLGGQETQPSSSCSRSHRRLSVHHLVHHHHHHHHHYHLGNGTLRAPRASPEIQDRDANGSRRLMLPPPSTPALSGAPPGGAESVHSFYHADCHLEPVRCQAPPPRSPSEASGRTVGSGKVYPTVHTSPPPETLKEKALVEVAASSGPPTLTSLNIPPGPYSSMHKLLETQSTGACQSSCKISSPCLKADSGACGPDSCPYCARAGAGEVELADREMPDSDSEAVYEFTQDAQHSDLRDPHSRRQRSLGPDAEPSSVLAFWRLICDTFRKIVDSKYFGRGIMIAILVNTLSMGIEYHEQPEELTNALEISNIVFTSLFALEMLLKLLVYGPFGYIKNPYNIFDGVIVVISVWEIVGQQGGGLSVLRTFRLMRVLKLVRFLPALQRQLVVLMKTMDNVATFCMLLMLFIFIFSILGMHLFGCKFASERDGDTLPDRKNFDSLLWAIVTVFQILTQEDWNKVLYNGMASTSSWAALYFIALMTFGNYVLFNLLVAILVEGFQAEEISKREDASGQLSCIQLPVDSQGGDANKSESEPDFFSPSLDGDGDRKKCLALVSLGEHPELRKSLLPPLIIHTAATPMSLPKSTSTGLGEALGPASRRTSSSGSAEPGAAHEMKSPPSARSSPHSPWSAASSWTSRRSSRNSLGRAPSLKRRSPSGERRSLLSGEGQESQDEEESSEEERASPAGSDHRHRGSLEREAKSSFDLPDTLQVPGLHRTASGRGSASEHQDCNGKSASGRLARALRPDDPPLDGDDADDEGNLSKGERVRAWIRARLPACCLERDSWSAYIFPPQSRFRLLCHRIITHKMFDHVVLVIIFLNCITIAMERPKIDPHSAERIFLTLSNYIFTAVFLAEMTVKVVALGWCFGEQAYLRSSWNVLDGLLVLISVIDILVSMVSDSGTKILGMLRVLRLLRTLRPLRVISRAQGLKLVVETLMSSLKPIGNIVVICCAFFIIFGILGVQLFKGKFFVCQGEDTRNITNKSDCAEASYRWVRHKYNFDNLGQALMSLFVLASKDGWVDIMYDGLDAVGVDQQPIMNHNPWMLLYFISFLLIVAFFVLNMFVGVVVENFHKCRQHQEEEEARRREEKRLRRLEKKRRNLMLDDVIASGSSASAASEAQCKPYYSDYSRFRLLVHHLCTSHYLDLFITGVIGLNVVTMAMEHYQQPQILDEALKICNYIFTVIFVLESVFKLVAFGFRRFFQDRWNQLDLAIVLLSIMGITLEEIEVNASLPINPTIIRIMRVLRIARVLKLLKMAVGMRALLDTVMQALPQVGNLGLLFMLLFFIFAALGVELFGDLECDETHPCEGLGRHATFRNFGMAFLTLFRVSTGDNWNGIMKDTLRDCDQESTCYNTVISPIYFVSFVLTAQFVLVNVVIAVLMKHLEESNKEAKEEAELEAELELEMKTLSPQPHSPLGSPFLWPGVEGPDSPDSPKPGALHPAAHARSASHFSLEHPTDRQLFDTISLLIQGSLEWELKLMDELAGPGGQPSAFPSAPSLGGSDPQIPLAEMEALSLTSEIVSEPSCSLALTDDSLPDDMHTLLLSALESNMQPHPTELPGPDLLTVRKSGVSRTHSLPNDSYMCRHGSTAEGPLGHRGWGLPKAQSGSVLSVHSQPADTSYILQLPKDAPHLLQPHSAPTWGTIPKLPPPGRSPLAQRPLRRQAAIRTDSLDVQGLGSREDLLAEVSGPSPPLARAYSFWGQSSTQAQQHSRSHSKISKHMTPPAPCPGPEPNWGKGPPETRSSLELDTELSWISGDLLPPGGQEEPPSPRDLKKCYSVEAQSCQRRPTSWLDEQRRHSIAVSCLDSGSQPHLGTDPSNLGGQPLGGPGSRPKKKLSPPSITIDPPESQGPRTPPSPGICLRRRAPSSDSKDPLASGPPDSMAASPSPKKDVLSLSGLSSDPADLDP

SMILES	pIC50 [1]	pIC50 [2]	also measured
N[C@H]1CCCC[C@@H]1C(=O)N1CCC(CC(=O)Nc2cc(Cl)cc(Cl)c2)CC1 (racemic) [Compound 17, trans-2-(1-(2-aminocyclohexanecarbonyl)piperidin-4-yl)-N-(3,5-dichlorophenyl)acetamide]	6.16	< 5.00	–
CN1CCCC(C(=O)N2CC(CC(=O)Nc3cc(C(F)(F)F)cc(C(F)(F)F)c3)C2)C1 (stereo not shown) [Compound 38, N-(3,5-bis(trifluoromethyl)phenyl)-2-(1-(1-methylpiperidine-3-carbonyl)azetidin-3-yl)acetamide]	5.09	< 5.00	–
N[C@H]1CCCC[C@@H]1C(=O)N1CCC(CC(=O)Nc2cc(C(F)(F)F)cc(C(F)(F)F)c2)C1 (stereo partly drawn) [Compound 33, 2-(1-((1S,2S)-2-aminocyclohexanecarbonyl)pyrrolidin-3-yl)-N-(3,5-bis(trifluoromethyl)phenyl)acetamide]	6.59	5.28	–
N[C@H]1CCCC[C@@H]1C(=O)N1CCC(CC(=O)Nc2cccc(C(F)(F)F)c2)CC1 (racemic) [Compound 13, trans-2-(1-(2-aminocyclohexanecarbonyl)piperidin-4-yl)-N-(3-(trifluoromethyl)phenyl)acetamide]	5.57	< 5.00	–
N[C@@H]1CCCC[C@H]1C(=O)N1CCC(CC(=O)Nc2cc(C(F)(F)F)cc(C(F)(F)F)c2)CC1 [Compound 6, 2-(1-((1R,2R)-2-aminocyclohexanecarbonyl)piperidin-4-yl)-N-(3,5-bis(trifluoromethyl)phenyl)acetamide]	6.60	< 5.00	–
CN1CCCCC1C(=O)N1CCC(CC(=O)Nc2cc(C(F)(F)F)cc(C(F)(F)F)c2)C1 (stereo not shown) [Compound 35, N-(3,5-bis(trifluoromethyl)phenyl)-2-(1-(1-methylpiperidine-2-carbonyl)pyrrolidin-3-yl)acetamide]	5.71	5.22	–
NC1(C(=O)N2CCC(CC(=O)Nc3cc(C(F)(F)F)cc(C(F)(F)F)c3)CC2)CCCCC1 [Compound 9, 2-(1-(1-aminocyclohexanecarbonyl)piperidin-4-yl)-N-(3,5-bis(trifluoromethyl)phenyl)acetamide]	6.00	5.33	–
N[C@H]1CCCC[C@H]1C(=O)N1CCC(CC(=O)Nc2cc(C(F)(F)F)cc(C(F)(F)F)c2)CC1 (racemic) [Compound 5, cis-2-(1-(2-aminocyclohexanecarbonyl)piperidin-4-yl)-N-(3,5-bis(trifluoromethyl)phenyl)acetamide]	7.00	< 5.00	–
CC1(C(=O)N2CCC(CC(=O)Nc3cc(C(F)(F)F)cc(C(F)(F)F)c3)C2)CCCCN1 (stereo not shown) [Compound 34, N-(3,5-bis(trifluoromethyl)phenyl)-2-(1-(2-methylpiperidine-2-carbonyl)pyrrolidin-3-yl)acetamide]	5.71	5.36	–
O=C(CC1CCN(C(=O)C2CNCCO2)CC1)Nc1cc(C(F)(F)F)cc(C(F)(F)F)c1 (stereo not shown) [Compound 4, N-(3,5-bis(trifluoromethyl)phenyl)-2-(1-(morpholine-2-carbonyl)piperidin-4-yl)acetamide]	5.66	< 5.00	Rotarod Assay (% impaired) ([3]; 0.25 hr): 25%; Rotarod Assay (% impaired) ([3]; 0.5 hr): 0%; Rotarod Assay (% impaired) ([3]; 1 hr): 75%; Rotarod Assay (% impaired) ([3]; 2 hr): 75%; Rotarod Assay (% impaired) ([3]; 4 hr): 75%
N[C@@H]1CCCC[C@@H]1C(=O)N1CCC(CC(=O)Nc2cc(C(F)(F)F)cc(C(F)(F)F)c2)C1 (stereo partly drawn) [Compound 31, 2-(1-((1S,2R)-2-aminocyclohexanecarbonyl)pyrrolidin-3-yl)-N-(3,5-bis(trifluoromethyl)phenyl)acetamide]	6.34	5.21	–
CC(C)(CN)C(=O)N1CCC(CC(=O)Nc2cc(C(F)(F)F)cc(C(F)(F)F)c2)C1 (stereo not shown) [Compound 47, 2-(1-(3-amino-2,2-dimethylpropanoyl)pyrrolidin-3-yl)-N-(3,5-bis(trifluoromethyl)phenyl)acetamide]	5.47	< 5.00	–
N[C@H]1CCCC[C@@H]1C(=O)N1CCC(CC(=O)Nc2cc(Br)cc(C(F)(F)F)c2)CC1 (racemic) [Compound 19, trans-2-(1-(2-aminocyclohexanecarbonyl)piperidin-4-yl)-N-(3-bromo-5-(trifluoromethyl)phenyl)acetamide]	6.55	< 5.00	–
CC(C)(N)CC(=O)N1CCC(CC(=O)Nc2cc(C(F)(F)F)cc(C(F)(F)F)c2)C1 (stereo not shown) [Compound 44, 2-(1-(3-amino-3-methylbutanoyl)pyrrolidin-3-yl)-N-(3,5-bis(trifluoromethyl)phenyl)acetamide]	5.68	< 5.00	–
N[C@@H]1CCCC[C@H]1C(=O)N1CCC(CNC(=O)c2cc(C(F)(F)F)cc(C(F)(F)F)c2)CC1 (racemic) [Compound 48]	5.73	< 5.00	–
N[C@H]1CCCC[C@@H]1C(=O)N1CCC(CC(=O)Nc2ccc(Br)c(C(F)(F)F)c2)CC1 (racemic) [Compound 20, trans-2-(1-(2-aminocyclohexanecarbonyl)piperidin-4-yl)-N-(4-bromo-3-(trifluoromethyl)phenyl)acetamide]	6.04	< 5.00	–
CN1CCCC(C(=O)N2CCC(CC(=O)Nc3cc(C(F)(F)F)cc(C(F)(F)F)c3)CC2)C1 (stereo not shown) [Compound 1, N-(3,5-bis(trifluoromethyl)phenyl)-2-(1-(1-methylpiperidine-3-carbonyl)piperidin-4-yl)acetamide]	6.29	< 5.00	–
O=C(CC1CCN(C(=O)C2CCCCN2)C1)Nc1cc(C(F)(F)F)cc(C(F)(F)F)c1 (stereo not shown) [Compound 29, N-(3,5-bis(trifluoromethyl)phenyl)-2-(1-(piperidine-2-carbonyl)pyrrolidin-3-yl)acetamide]	6.24	5.15	–
N[C@@H]1CCCC[C@H]1C(=O)N1CCC(CC(=O)Nc2cc(C(F)(F)F)cc(C(F)(F)F)c2)C1 (stereo partly drawn) [Compound 32, 2-(1-((1R,2R)-2-aminocyclohexanecarbonyl)pyrrolidin-3-yl)-N-(3,5-bis(trifluoromethyl)phenyl)acetamide]	6.20	5.25	–
N[C@@H]1CCCC[C@H]1C(=O)N1CC(CC(=O)Nc2cc(C(F)(F)F)cc(C(F)(F)F)c2)C1 (racemic) [Compound 40, trans-2-(1-(2-aminocyclohexanecarbonyl)azetidin-3-yl)-N-(3,5-bis(trifluoromethyl)phenyl)acetamide]	6.08	< 5.00	–
N[C@H]1CCCC[C@H]1C(=O)N1CCC(CC(=O)Nc2cc(C(F)(F)F)cc(C(F)(F)F)c2)C1 (stereo partly drawn) [Compound 30, 2-(1-((1R,2S)-2-aminocyclohexanecarbonyl)pyrrolidin-3-yl)-N-(3,5-bis(trifluoromethyl)phenyl)acetamide]	6.15	5.05	–
N[C@H]1CCCC[C@H]1C(=O)N1CC(CC(=O)Nc2cc(C(F)(F)F)cc(C(F)(F)F)c2)C1 (racemic) [Compound 41, cis-2-(1-(2-aminocyclohexanecarbonyl)azetidin-3-yl)-N-(3,5-bis(trifluoromethyl)phenyl)acetamide]	6.07	< 5.00	–
CC(C)(N)CC(=O)N1CC(CC(=O)Nc2cc(C(F)(F)F)cc(C(F)(F)F)c2)C1 [Compound 43, 2-(1-(3-amino-3-methylbutanoyl)azetidin-3-yl)-N-(3,5-bis(trifluoromethyl)phenyl)acetamide]	< 5.00	< 5.00	–
CC(C)(CN)C(=O)N1CC(CC(=O)Nc2cc(C(F)(F)F)cc(C(F)(F)F)c2)C1 [Compound 46, 2-(1-(3-amino-2,2-dimethylpropanoyl)azetidin-3-yl)-N-(3,5-bis(trifluoromethyl)phenyl)acetamide]	< 5.00	< 5.00	–
CN1CCCCC1C(=O)N1CC(CC(=O)Nc2cc(C(F)(F)F)cc(C(F)(F)F)c2)C1 (stereo not shown) [Compound 37, N-(3,5-bis(trifluoromethyl)phenyl)-2-(1-(1-methylpiperidine-2-carbonyl)azetidin-3-yl)acetamide]	5.36	< 5.00	–
